Results: patent publication US20140193827A1 (TEVA PHARMACEUTICAL INDUSTRIES, LTD., priority 2013, published 2014)

Tested on: GA-primed murine splenocytes
Test: Tolerance method for assessing process variability
Conditions: microarray; splenocytes activated 24 hours

glatiramer acetate [GA]
AVG expression of 1110067B18RIK, probe ILMN_2514723: 8.228 | AVG expression of 1190002H23RIK, probe ILMN_2593774: 7.583 | AVG expression of 1700129I04RIK, probe ILMN_1224390: 6.752 | AVG expression of 2810485I05RIK, probe ILMN_2695217: 10.37 | AVG expression of A130087I02RIK, probe ILMN_1232144: 6.482 | AVG expression of A630077B13RIK, probe ILMN_1249864: 9.099 | AVG expression of A930005H10RIK, probe ILMN_1250135: 10.04 | AVG expression of ADA, probe ILMN_2686132: 7.525 | AVG expression of AI467606, probe ILMN_1213645: 10.38 | AVG expression of ANKRD11, probe ILMN_2727235: 9.978 | AVG expression of APPL2, probe ILMN_1219978: 7.742 | AVG expression of ARHGAP4, probe ILMN_2677876: 11.38 | AVG expression of ARRB2, probe ILMN_2700848: 9.049 | AVG expression of AVIL, probe ILMN_2753149: 6.407 | AVG expression of B3GNT7, probe ILMN_2655571: 6.563 | AVG expression of B230345P09RIK, probe ILMN_2469190: 8.997 | AVG expression of BATF3, probe ILMN_2526739: 6.73 | AVG expression of BC038822, probe ILMN_2804103: 7.38 | AVG expression of BC065085, probe ILMN_2974737: 7.582 | AVG expression of BEX4, probe ILMN_3118584: 6.717 | AVG expression of BLVRB, probe ILMN_2770917: 9.003 | AVG expression of C3, probe ILMN_2759484: 8.352 | AVG expression of C130078N17RIK, probe ILMN_2522495: 10.34 | AVG expression of C230082I21RIK, probe ILMN_1248824: 8.744 | AVG expression of C430002D13RIK, probe ILMN_2571616: 7.951 | AVG expression of CCND2, probe ILMN_1225932: 8.425 | AVG expression of CCNG1, probe ILMN_2710229: 8.72 | AVG expression of CCR6, probe ILMN_2888448: 11.42 | AVG expression of CD44, probe ILMN_1223697: 10.12 | AVG expression of CHD3, probe ILMN_2524861: 7.978 | AVG expression of CHKA, probe ILMN_3026397: 12.08 | AVG expression of CLASP1, probe ILMN_1225769: 7.92 | AVG expression of CLIC4, probe ILMN_2599018: 7.206 | AVG expression of CLSPN, probe ILMN_2858359: 8.857 | AVG expression of CRTC3, probe ILMN_1248891: 8.262 | AVG expression of CSNK1G3, probe ILMN_2793946: 9.73 | AVG expression of CYP51, probe ILMN_2688075: 9.707 | AVG expression of DEADC1, probe ILMN_2705097: 9.246 | AVG expression of DGKZ, probe ILMN_1239607: 8.46 | AVG expression of DLM1-PENDING, probe ILMN_1218547: 6.869 | AVG expression of DYRK2, probe ILMN_3138439: 6.905 | AVG expression of E2F3, probe ILMN_2743503: 7.726 | AVG expression of EG433016, probe ILMN_2995688: 8.853 | AVG expression of ENTPD5, probe ILMN_3149143: 7.434 | AVG expression of F2RL1, probe ILMN_2769567: 6.312 | AVG expression of FBXO4, probe ILMN_2772920: 9.934 | AVG expression of FOSL2, probe ILMN_1252481: 8.057 | AVG expression of FOXP3, probe ILMN_2917180: 7.709 | AVG expression of FSCN1, probe ILMN_2630605: 8.879 | AVG expression of FXYD5, probe ILMN_1235493: 10.05 | AVG expression of GAB3, probe ILMN_3133748: 7.208 | AVG expression of GRN, probe ILMN_2595973: 10.66 | AVG expression of H3F3B, probe ILMN_1231168: 8.812 | AVG expression of HAMP, probe ILMN_1236304: 6.455 | AVG expression of HEG1, probe ILMN_2600022: 7.682 | AVG expression of HIST2H2AA1, probe ILMN_2751948: 7.127 | AVG expression of HTT, probe ILMN_2672091: 7.448 | AVG expression of IFITM1, probe ILMN_2814484: 7.066 | AVG expression of IFNGR2, probe ILMN_2784272: 9.806 | AVG expression of IGK-V5, probe ILMN_2631259: 11.21 | AVG expression of IL1A, probe ILMN_1227018: 8.103 | AVG expression of IL13, probe ILMN_2927131: 6.7 | AVG expression of IRF8, probe ILMN_2673369: 10.92 | AVG expression of KIF1B, probe ILMN_2587761: 6.394 | AVG expression of LDHA, probe ILMN_1257965: 12.99 | AVG expression of LOC386005, probe ILMN_2538029: 10.77 | AVG expression of LOC637711, probe ILMN_1239601: 8.053 | AVG expression of LOC677643, probe ILMN_1225733: 9.931 | AVG expression of LOC100043671, probe ILMN_1258600: 9.958 | AVG expression of LOC100046496, probe ILMN_1229263: 10.5 | AVG expression of LOC100046793, probe ILMN_2469743: 12 | AVG expression of LOC100047316, probe ILMN_1215825: 8.765 | AVG expression of LY78, probe ILMN_2585533: 7.951 | AVG expression of MSH5, probe ILMN_1241923: 6.819 | AVG expression of NFAT5, probe ILMN_2612448: 9.617 | AVG expression of NKG7, probe ILMN_1217855: 9.69 | AVG expression of PEA15, probe ILMN_2624938: 8.032 | AVG expression of PEX11C, probe ILMN_2467365: 6.162 | AVG expression of RABAC1, probe ILMN_1244857: 10.79 | AVG expression of RDM1, probe ILMN_1218934: 9.296 | AVG expression of RFC3, probe ILMN_2543834: 7.31 | AVG expression of RNF167, probe ILMN_2892856: 9.181 | AVG expression of RUNDC3B, probe ILMN_2660596: 7.1822 | AVG expression of SCN4A, probe ILMN_2814847: 7.299 | AVG expression of SDF2L1, probe ILMN_1221943: 9.843 | AVG expression of SERPINA3H, probe ILMN_2889832: 7.95 | AVG expression of SGCB, probe ILMN_1255256: 7.292
